Measurements published in patent US20240285497A1, “METHOD FOR EVALUATING AN ABILITY OF A TEST SAMPLE TO TRIGGER A FOREIGN BODY REACTION IN THE SKIN, A METHOD FOR SCREENING A SUBSTANCE HAVING AN ABILITY TO INHIBIT A FOREIGN BODY REACTION IN THE SKIN, AND AN AGENT FOR INHIBITING A FOREIGN BODY REACTION IN THE SKIN” (priority 2021, published 2024).
Marks after values point to notes of the source that are not given here.

How the values were obtained:
XRE-NLuc::HaCaT cells = assay: in vitro; conditions: read-out: LC50; XRE-NLuc::HaCaT cells, median lethal concentration
Experimental: (§1) After the above-described incubation for 24 hours, the number of cells in each well was counted by a colorimetric method based on the degradation of tetrazolium salt (WST-1) by mitochondrial dehydrogenase in viable cells. Specifically, 3 μL of Premix WST-1 (Product Name “Premix WST-1 Cell Proliferation Assay System”; Takara Bio Inc., Shiga, Japan; Catalogue No.: MK400) was added to each well of 96 well plates, and then the cells were cultured for 1 hour at 37° C., 5% CO2. Thereafter, 93 μL of cell culture supernatant was removed from each well to measure the absorbance of the supernatant in each well. The removed supernatants were transferred to transparent 96 well plates, and then the absorbance at 450 nm (A450) and, as a reference wavelength, the absorbance at 670 nm (A670) were measured using iMark microplate reader (Bio-Rad; Catalogue No.: 168-1130JA). A value (A450-A670) was obtained by subtracting the absorbance at 670 nm (A670) from the absorbance at 450 nm (A450). The relative viable cell count (%) was expressed as a relative value with the value (A450-A670) obtained for the negative control as 100%.
(§2) The ability of each test sample to trigger a foreign body reaction was evaluated using XRE-NLuc::HaCaT cells in the same manner as in Experiment 1-2, except that I3C (Indole-3-carbinol, CAS RN: 700-06-1), ITE (2-(1′H-indole-3′-carbonyl)-thiazole-4-carboxylic acid methyl ester, CAS RN: 448906-42-1), and Indirubin (CAS RN: 479-41-4) were used instead of FICZ as test samples and the amount of each test sample added to the DMEM medium was appropriately changed.

[1] = tested on: human liver cancer-derived cell line HepG2 cells; conditions: cited from earlier work
[2] = tested on: xenobiotic responsive element (XRE); assay: Evaluation of ability to trigger a foreign body reaction using XRE-NLuc::HaCaT reporter cells (NLuc luminescence per viable cell); type: cell-based, human; conditions: XRE-NLuc::HaCaT cells; for EC50: reporter protein expression; for Present Experiment Maximum Effective concentration Max. Induction: concentration at which reporter expression was maximized
Experimental: First, XRE-NLuc::HaCaT cells were suspended in a DMEM medium at the density of 1×10^5 cell/mL, and 100 μL of the thus obtained suspension was added to each well of white 96 well plates (Thermo Fisher Scientific, MA, U.S.A.; Catalogue No.: 136102) so that the number of the cells in each well was 10,000 cells/well. In accordance with a conventional method, the cells were incubated at 37° C., 5% CO2 for 24 hours. Thereafter, the DMEM medium was removed, and 100 μL of a new DMEM medium containing FICZ (6-Formylindolo[3,2-b]carbazole; CAS RN: 172922-91-7) as a test sample at a predetermined concentration was added, followed by further incubation for 24 hours at 37° C., 5% CO2. FICZ is known as a substance that triggers a foreign body reaction in which XRE is involved. Meanwhile, negative controls were prepared by adding 100 μL of a DMEM medium containing no FICZ instead of the DMEM medium containing FICZ, which were also incubated for 24 hours at 37° C., 5% CO2.
as §1
Meanwhile, the expression level of the reporter protein was measured using samples left on the white 96-well plates after removing the supernatants for the viable cell count measurement. Briefly, 7 μL of Nano-Glo Luciferase Assay System (Promega; Catalogue No.: N110) was added to each well of the white 96-well plate. After 3 mins, the luminescence intensity obtained from the reporter protein produced by XRE-NLuc::HaCaT cells in each well was measured using GloMax Navigator Microplate Luminometer (Promega; Catalogue No.: GM2000). The obtained luminescence intensities were divided by the relative viable cell counts obtained by the above-described colorimetric method to obtain the expression level of the reporter protein (luminescence intensity) per unit number of viable cells.
In FIG. 3, the luminescence intensity per unit number of viable cells obtained from XRE-NLuc::HaCaT cells incubated with each of the DMEM medium containing FICZ at different concentrations was shown as a relative value, with the luminescence intensity per unit number of viable cells obtained for the negative control set to 1. […] In the figure, “*” and “**” indicate statistically significant differences (p<0.05 and p<0.01, respectively) from the negative control (“FICZ Concentration 0 nM” in FIG. 3).
as §2

in vitro = conditions: human
Experimental: as §1, §2

[3] = tested on: TIMP-1 (Tissue Inhibitor of Matrix Metalloprotease-1) mRNA; assay: TIMP-1 mRNA expression in HaCaT cells, quantitative PCR; type: cell-based, human; conditions: Fraglide-1 1 μM, 10 μM, 100 μM; retinoic acid / nicotinic acid amide at predetermined concentrations; 24 hours
Experimental: Specifically, the mRNA expression of TIMP-1 in the HaCaT cells treated with Fraglide-1 was evaluated by performing quantitative PCR using cDNA obtained in Experiment 4-1. The procedure of quantitative PCR was the same as described in Experiment 4-1 except that the primers shown in below Table 5 were used.
(§3) In FIG. 14, the results obtained for each sample were shown in relative values normalized by setting the expression level of TIMP-1 in the HaCaT cells incubated for 24 hours in DMEM medium not containing Fraglide-1 (i.e., the non-treated HaCaT cells) as 1. The results shown in FIG. 14 are the mean of values obtained from three independent experiments, and the error bars represent standard deviation (SD).
On the other hand, as comparison, the similar evaluation was performed for retinoic acid and nicotinamide, which are known as active ingredients of anti-wrinkle agents, using cDNA obtained in Experiment 4-2. The procedure for quantitative PCR was the same as already described in Experiment 3-1, except that the primers shown in Table 5 were used.
as §3, with “15,” for “14,”, “either retinoic acid and nicotinic acid amide” for “Fraglide-1”, “15” for “14”

[4] = tested on: matrix metalloprotease 2 (MMP2) mRNA; assay: MMP2 mRNA expression in HaCaT cells contacted with test substance, quantitative PCR; type: cell-based, human; conditions: retinoic acid or nicotinamide at predetermined concentrations, 24 hours
Experimental: In this experiment, the effect of Fraglide-1 on the expression of MMP9 in the level of mRNA was examined first. Specifically, HaCaT cells were treated with Fraglide-1 in the same manner as described in Experiment 3-1 except that HaCaT cells were incubated for 24 hours in the medium containing 0 μM, 1 μM, 10 μM, and 100 μM of Fraglide-1 instead of being incubated for 24 hours in the medium containing both FICZ and Fraglide-1. The total RNA was then extracted, cDNA was prepared, and the quantitative PCR was performed using the obtained cDNA. Herein, the procedure of the quantitative PCR was the same as described in Experiment 3-1 except that the primers shown in below Table 4 were used. In this experiment, the expression of MMP2 mRNA was also quantified in addition to MMP9 mRNA. MMP2 is known as a MMP which is not transcriptionally regulated by a xenobiotic responsive element (XRE). […]
Next, experiments were performed to inhibit MMP9 and MMP2 in HaCaT cells using retinoic acid (CAS RN: 302-79-4) and nicotinamide (CAS RN: 98-92-0), which are known to be substances having anti-wrinkle effect. […] Then, the total RNA was extracted, cDNA was prepared, and the quantitative PCR was carried out using the obtained cDNA. […]

[5] = tested on: matrix metalloprotease 9 (MMP9) mRNA; assay: MMP9 mRNA expression in HaCaT cells contacted with test substance, quantitative PCR; type: cell-based, human; conditions: retinoic acid or nicotinamide at predetermined concentrations, 24 hours
Experimental: In this experiment, the effect of Fraglide-1 on the expression of MMP9 in the level of mRNA was examined first. Specifically, HaCaT cells were treated with Fraglide-1 in the same manner as described in Experiment 3-1 except that HaCaT cells were incubated for 24 hours in the medium containing 0 μM, 1 μM, 10 μM, and 100 μM of Fraglide-1 instead of being incubated for 24 hours in the medium containing both FICZ and Fraglide-1. The total RNA was then extracted, cDNA was prepared, and the quantitative PCR was performed using the obtained cDNA. Herein, the procedure of the quantitative PCR was the same as described in Experiment 3-1 except that the primers shown in below Table 4 were used. In this experiment, the expression of MMP2 mRNA was also quantified in addition to MMP9 mRNA. MMP2 is known as a MMP which is not transcriptionally regulated by a xenobiotic responsive element (XRE).
(§4) In FIG. 9 and FIG. 10, the results obtained for each sample were shown as a relative value, with the mRNA expression level of MMP9 or MMP2 in the HaCaT cells incubated for 24 hours in DMEM medium without FICZ (i.e., the non-treated HaCaT cells) set to 1. The results shown in FIG. 9 and FIG. 10 were the mean obtained from three independent experiments. The error bars represent the standard deviation (SD).
Next, experiments were performed to inhibit MMP9 and MMP2 in HaCaT cells using retinoic acid (CAS RN: 302-79-4) and nicotinamide (CAS RN: 98-92-0), which are known to be substances having anti-wrinkle effect. Briefly, HaCaT cells were made in contact with retinoic acid and nicotinamide in the same manner as in Experiment 4-1 except that retinoic acid and nicotinamide were used instead of Fraglide-1. Then, the total RNA was extracted, cDNA was prepared, and the quantitative PCR was carried out using the obtained cDNA.
as §4, with “FIG. 12” for “FIG. 9”, “FIG. 13,” for “FIG. 10,”, “medium containing neither retinoic acid nor nicotinamide” for “medium without FICZ”, “FIG. 13” for “FIG. 10”

[6] = tested on: xenobiotic responsive element (XRE); assay: Screening: inhibition of FICZ-triggered reporter protein expression in XRE-NLuc::HaCaT cells; type: cell-based, human; conditions: FICZ 5,000 nM, 24 hours
Experimental: First, in the same manner as in Experiment 1-2, XRE-NLuc::HaCaT cells were suspended in a DMEM medium at the density of 1×10^5 cell/mL, and 100 μL of the thus obtained suspension was added to each well of white 96-well plates (Thermo Fisher Scientific, MA, U.S.A.; Catalogue No.: 136102) so that a number of the cells in each well was 10,000 cells/well. In accordance with the conventional method, the cells were incubated for 24 hours at 37° C. and 5% CO2. Thereafter, the DMEM medium was removed, and 100 μL of a new DMEM medium containing […] of FICZ, which was confirmed to activate the expression of the reporter protein in Experiment 1-2, and a candidate substance at a predetermined concentration. Meanwhile, reference samples were also prepared by adding 100 μL of a DMEM medium containing 5,000 nM of FICZ but not containing candidate substances. In this experiment, 5-hydroxy-4-phenyl-2(5H)butenolide (hereinafter also referred to as “Fraglide-1” or “FG1”) and, as a positive control, cinnamaldehyde, which is known to have an effect of inhibiting a foreign body reaction in which a xenobiotic responsive element (XRE) is involved, were used as test substances. After incubation for 24 hours at 37° C. and 5% CO2, the expression level of the reporter protein (luminescence intensity) and the viable cell count were measured in accordance with the method described in Experiment 1-2, and the expression of the reporter protein per unit number of viable cells was obtained. The inhibition rate (Inhibition (%)) of the expression of the reporter protein exerted by each candidate substance was calculated in accordance with the following formula.
In the above formula, (Reporter Expression)FICZ indicates the expression of the reporter protein per unit number of viable cells obtained from the reference samples: i.e., the cells incubated in the medium containing 5,000 nM of FICZ but not containing candidate substances. Meanwhile, (Reporter Expression)FICZ+TEST SAMPLE indicates the expression of the reporter protein per unit number of viable cells obtained from the cells incubated in the medium containing 5,000 nM of FICZ and a candidate substance. The results shown in FIG. 6 were the mean obtained from three independent experiments. The error bars represent the standard error (SE).

For `COC(=O)c1csc(C(=O)c2c[nH]c3ccccc23)n1` [ITE, 2-(1′H-indole-3′-carbonyl)-thiazole-4-carboxylic acid methyl ester], the CC50 (XRE-NLuc::HaCaT cells) is given as > 100 µM, the “Literature Value Maximum Effective concentration Max. Induction” value [1] is given as 10** μM and the EC50 [2] is given as 1.3 µM. For the same compound, the “Present Experiment Maximum Effective concentration Max. Induction” value [2] was 25 µM.

For `O=C1Nc2ccccc2/C1=C1/Nc2ccccc2C1=O` [Indirubin, indirubin], the CC50 at 24 h (in vitro) was > 40 µM, the EC50 ([2]; Homo sapiens) was 0.006 µM and the “Present Experiment Maximum Effective concentration Max. Induction” value [2] was 0.25 µM.

In the case of `NC(=O)c1cccnc1` [nicotinamide], the “expression level of TIMP-1 mRNA vs non-treated HaCaT cells (in words)” value [3] is reported as “increase of the expression level of TIMP-1 was not observed”, the “expression of MMP2 mRNA vs non-treated HaCaT cells” value [4] is reported as “decreased” and the “expression of MMP9 mRNA vs non-treated HaCaT cells” value [5] is reported as “decreased expression of MMP9 was also observed”.

In the case of `O=CC=Cc1ccccc1` [cinnamaldehyde], the “Inhibition (%) of expression of the reporter protein triggered by FICZ” value (from here on “Inhibition (%)”) ([6]; 12.5 μM test substance) is reported as 8%, the “Inhibition (%)” value ([6]; 25 μM test substance) is reported as 14% and the “Inhibition (%)” value ([6]; 50 μM test substance) is reported as 16%.

For `OCc1c[nH]c2ccccc12` [I3C, indole-3-carbinol], the CC50 (XRE-NLuc::HaCaT cells) was > 700 µM, the EC50 [2] was 11 µM and the “Present Experiment Maximum Effective concentration Max. Induction” value [2] was 350 µM.
